The compounds below were run against rat brain cortical membranes ([35S]-TBPS binding) (assay: Steroid inhibition of [35S]-TBPS binding (radioligand displacement)). Conditions: 3 nM [35S]-TBPS, in the presence of 5 μM GABA.
Experimental: Steroid Inhibition of TBPS Binding
TBPS binding assays using rat brain cortical membranes in the presence of 5 μM GABA has been described (Gee et al, J. Pharmacol. Exp. Ther. 1987, 241, 346-353; Hawkinson et al, Mol. Pharmacol. 1994, 46, 977-985; Lewin, A. H et al., Mol. Pharmacol. 1989, 35, 189-194).
Briefly, cortices are rapidly removed following decapitation of carbon dioxide-anesthetized Sprague-Dawley rats (200-250 g). The cortices are homogenized in 10 volumes of ice-cold 0.32 M sucrose using a glass/teflon homogenizer and centrifuged at 1500×g for 10 min at 4° C. The resultant supernatants are centrifuged at 10,000×g for 20 min at 4° C. to obtain the P2 pellets. The P2 pellets are resuspended in 200 mM NaCl/50 mM Na—K phosphate pH 7.4 buffer and centrifuged at 10,000×g for 10 min at 4° C. This washing procedure is repeated twice and the pellets are resuspended in 10 volumes of buffer. Aliquots (100 uL) of the membrane suspensions are incubated with 3 nM [^35S]-TBPS and 5 μL aliquots of test drug dissolved in dimethyl sulfoxide (DMSO) (final 0.5%) in the presence of 5 μM GABA. The incubation is brought to a final volume of 1.0 mL with buffer. […] Following a 90 min incubation at room temp, the assays are terminated by filtration through glass fiber filters (Schleicher and Schuell No. 32) using a cell harvester (Brandel) and rinsed three times with ice-cold buffer. Filter bound radioactivity is measured by liquid scintillation spectrometry. Non-linear curve fitting of the overall data for each drug averaged for each concentration is done using Prism (GraphPad). […] The concentration of test compound producing 50% inhibition (IC50) of specific binding and the maximal extent of inhibition (Imax) are determined for the individual experiments with the same model used for the overall data and then the means±SEMs of the individual experiments are calculated.
Various compounds are or can be screened to determine their potential as modulators of [^35S]-TBPS binding in vitro. These assays are or can be performed in accordance with the above discussed procedures.

`C[C@@]1(O)CC[C@H]2[C@H](CC[C@@H]3[C@@H]2CC[C@]2(C)[C@@H](C(=O)c4cccc(F)c4)CC[C@@H]32)C1` [Compound 56] and `C[C@@]1(O)CC[C@H]2[C@H](CC[C@@H]3[C@@H]2CC[C@]2(C)[C@@H](C(=O)c4cc(F)cc(F)c4)CC[C@@H]32)C1` [Compound 136, (3,5-difluorophenyl)((3R,5R,8R,9R,10S,13S,14S,17S)-3-hydroxy-3,13-dimethylhexadecahydro-1H-cyclopenta[a]phenanthren-17-yl)methanone] fall in the same range of IC50: 20 to 50 nM for the first, 20 to 50 nM for the second.

`COC[C@]12CC[C@@](C)(O)C[C@@H]1CC[C@H]1[C@@H]3CC[C@H](C(=O)c4ccccn4)[C@@]3(C)CC[C@@H]12` [Compound 115] and `C[C@@]1(O)CC[C@@]2(C)[C@@H](CC[C@@H]3[C@@H]2CC[C@]2(C)[C@@H](C(=O)c4ccccn4)CC[C@@H]32)C1` [Compound 113] cannot be ordered by IC50: greater than 100 nM for the first, greater than 100 nM for the second.

First: C[C@@]1(O)CC[C@H]2[C@H](CC[C@@H]3[C@@H]2CC[C@]2(C)[C@@H](C(=O)c4ccc(-c5ccccc5)cc4)CC[C@@H]32)C1 [Compound 44]
Second: Cc1ccc(C(=O)[C@H]2CC[C@H]3[C@@H]4CC[C@@H]5C[C@](C)(O)CC[C@@H]5[C@H]4CC[C@]23C)cc1 [Compound 86]
The IC50 of the first is higher: 50 to 100 nM for the first, 20 to 50 nM for the second. The second is the more potent here.

`COc1ccc2cc(C(=O)[C@H]3CC[C@H]4[C@@H]5CC[C@H]6C[C@](C)(O)CC[C@]6(C)[C@H]5CC[C@]34C)ccc2c1` [Compound 128] and `COc1ccc2cc(C(=O)[C@H]3CC[C@H]4[C@@H]5CC[C@@H]6C[C@](C)(O)CC[C@]6(C)[C@H]5CC[C@]34C)ccc2c1` [Compound 85] cannot be ordered by IC50: greater than 100 nM for the first, greater than 100 nM for the second.

`C[C@@]1(O)CC[C@@]2(C)[C@@H](CC[C@@H]3[C@@H]2CC[C@]2(C)[C@@H](C(=O)c4ccccc4-c4ccccc4)CC[C@@H]32)C1` [Compound 127] and `COC[C@]12CC[C@@](C)(O)C[C@@H]1CC[C@H]1[C@@H]3CC[C@H](C(=O)c4ccccc4-c4ccccc4)[C@@]3(C)CC[C@@H]12` [Compound 91] cannot be ordered by IC50: greater than 100 nM for the first, greater than 100 nM for the second.

`CN(C)c1ccc(C(=O)[C@H]2CC[C@H]3[C@@H]4CC[C@@H]5C[C@](C)(O)CC[C@@H]5[C@H]4CC[C@]23C)cc1` [Compound 32] and `CSc1ccc(C(=O)[C@H]2CC[C@H]3[C@@H]4CC[C@@H]5C[C@](C)(O)CC[C@@H]5[C@H]4CC[C@]23C)cc1` [Compound 25] fall in the same range of IC50: 20 to 50 nM for the first, 20 to 50 nM for the second.

Compared with `C[C@@]1(O)CC[C@@]2(C)[C@@H](CC[C@@H]3[C@@H]2CC[C@]2(C)[C@@H](C(=O)c4cccnc4)CC[C@@H]32)C1` [Compound 125], `C[C@@]1(O)CC[C@@]2(C)[C@H](CC[C@@H]3[C@@H]2CC[C@]2(C)[C@@H](C(=O)c4ccccn4)CC[C@@H]32)C1` [Compound 62] is higher in IC50: 20 to 50 nM for the first, greater than 100 nM for the second. The first is the more potent here.

`COC[C@]12CC[C@@](C)(O)C[C@@H]1CC[C@H]1[C@@H]3CC[C@H](C(=O)c4ccc(N(C)C)cc4)[C@@]3(C)CC[C@@H]12` [Compound 109] and `COC[C@]12CC[C@@](C)(O)C[C@@H]1CC[C@H]1[C@@H]3CC[C@H](C(=O)c4ccc(C)c(C)c4)[C@@]3(C)CC[C@@H]12` [Compound 95] cannot be ordered by IC50: greater than 100 nM for the first, greater than 100 nM for the second.

Compared with `Cc1ccc(C(=O)[C@H]2CC[C@H]3[C@@H]4CC[C@H]5C[C@](C)(O)CC[C@]5(C)[C@H]4CC[C@]23C)cc1C` [Compound 39], `Cc1ccc(C(=O)[C@H]2CC[C@H]3[C@@H]4CC[C@@H]5C[C@](C)(O)CC[C@]5(C)[C@H]4CC[C@]23C)cc1F` [Compound 27] is lower in IC50: 50 to 100 nM for the first, 20 to 50 nM for the second.

Going from `CCc1ccc(C(=O)[C@H]2CC[C@H]3[C@@H]4CC[C@@H]5C[C@](C)(O)CC[C@]5(C)[C@H]4CC[C@]23C)cc1` [Compound 49] to `Cc1ccc(C(=O)[C@H]2CC[C@H]3[C@@H]4CC[C@H]5C[C@](C)(O)CC[C@]5(C)[C@H]4CC[C@]23C)cc1` [Compound 75], the IC50 rises from less than 20 nM to greater than 100 nM. The first is the more potent here.

`COC[C@]12CC[C@@](C)(O)C[C@@H]1CC[C@H]1[C@@H]3CC[C@H](C(=O)c4ccc5cc(OC)ccc5c4)[C@@]3(C)CC[C@@H]12` [Compound 97] and `COC[C@]12CC[C@@](C)(O)C[C@@H]1CC[C@H]1[C@@H]3CC[C@H](C(=O)c4cccc(C)c4)[C@@]3(C)CC[C@@H]12` [Compound 103] cannot be ordered by IC50: greater than 100 nM for the first, greater than 100 nM for the second.

`C[C@@]1(O)CC[C@@]2(C)[C@H](CC[C@@H]3[C@@H]2CC[C@]2(C)[C@@H](C(=O)c4ccc(F)cc4)CC[C@@H]32)C1` [Compound 54] and `C[C@@]1(O)CC[C@@]2(C)[C@H](CC[C@@H]3[C@@H]2CC[C@]2(C)[C@@H](C(=O)c4ccc(Cl)cc4)CC[C@@H]32)C1` [Compound 51] fall in the same range of IC50: 50 to 100 nM for the first, 50 to 100 nM for the second.

`C[C@@]1(O)CC[C@H]2[C@H](CC[C@@H]3[C@@H]2CC[C@]2(C)[C@@H](C(=O)c4cnn[nH]4)CC[C@@H]32)C1` [Compound 98] and `C[C@@]1(O)CC[C@H]2[C@H](CC[C@@H]3[C@@H]2CC[C@]2(C)[C@@H](C(=O)c4cnc[nH]4)CC[C@@H]32)C1` [Compound 88] cannot be ordered by IC50: greater than 100 nM for the first, greater than 100 nM for the second.

`C[C@@]1(O)CC[C@H]2[C@H](CC[C@@H]3[C@@H]2CC[C@]2(C)[C@@H](C(=O)c4cc5ccccc5o4)CC[C@@H]32)C1` [Compound 5] and `C[C@@]1(O)CC[C@H]2[C@H](CC[C@@H]3[C@@H]2CC[C@]2(C)[C@@H](C(=O)c4coc5ccccc45)CC[C@@H]32)C1` [Compound 12] fall in the same range of IC50: 20 to 50 nM for the first, 20 to 50 nM for the second.

First: C[C@@]1(O)CC[C@@]2(C)[C@H](CC[C@@H]3[C@@H]2CC[C@]2(C)[C@@H](C(=O)c4ccc(OC(F)(F)F)cc4)CC[C@@H]32)C1 [Compound 47]
Second: COc1ccc(C(=O)[C@H]2CC[C@H]3[C@@H]4CC[C@H]5C[C@](C)(O)CC[C@]5(C)[C@H]4CC[C@]23C)cc1 [Compound 76]
The IC50 of the first is lower: 20 to 50 nM for the first, greater than 100 nM for the second.

First: Cn1c(C(=O)[C@H]2CC[C@H]3[C@@H]4CC[C@@H]5C[C@](C)(O)CC[C@@H]5[C@H]4CC[C@]23C)cc2ccccc21 [Compound 7]
Second: C[C@@]1(O)CC[C@H]2[C@H](CC[C@@H]3[C@@H]2CC[C@]2(C)[C@@H](C(=O)c4nccs4)CC[C@@H]32)C1 [Compound 2]
The IC50 of the first is lower: 50 to 100 nM for the first, greater than 100 nM for the second. The first is the more potent here.

`Cc1cc(C)cc(C(=O)[C@H]2CC[C@H]3[C@@H]4CC[C@H]5C[C@](C)(O)CC[C@]5(C)[C@H]4CC[C@]23C)c1` [Compound 135] and `COc1cc(OC)cc(C(=O)[C@H]2CC[C@H]3[C@@H]4CC[C@@H]5C[C@](C)(O)CC[C@]5(C)[C@H]4CC[C@]23C)c1` [Compound 21] cannot be ordered by IC50: greater than 100 nM for the first, greater than 100 nM for the second.

Compared with `C[C@@]1(O)CC[C@H]2[C@H](CC[C@@H]3[C@@H]2CC[C@]2(C)[C@@H](C(=O)c4ccc(OC(F)(F)F)cc4)CC[C@@H]32)C1` [Compound 34], `COc1ccc(C(=O)[C@H]2CC[C@H]3[C@@H]4CC[C@@H]5C[C@](C)(O)CC[C@]5(C)[C@H]4CC[C@]23C)cc1` [Compound 61] is higher in IC50: less than 20 nM for the first, greater than 100 nM for the second.

`Cc1cc(C(=O)[C@H]2CC[C@H]3[C@@H]4CC[C@H]5C[C@](C)(O)CC[C@]5(C)[C@H]4CC[C@]23C)ccc1F` [Compound 38] and `C[C@@]1(O)CC[C@@]2(C)[C@@H](CC[C@@H]3[C@@H]2CC[C@]2(C)[C@@H](C(=O)c4ccc5ccccc5c4)CC[C@@H]32)C1` [Compound 14] fall in the same range of IC50: 50 to 100 nM for the first, 50 to 100 nM for the second.

First: COc1ccccc1C(=O)[C@H]1CC[C@H]2[C@@H]3CC[C@@H]4C[C@](C)(O)CC[C@]4(C)[C@H]3CC[C@]12C [Compound 53]
Second: COC[C@]12CC[C@@](C)(O)C[C@@H]1CC[C@H]1[C@@H]3CC[C@H](C(=O)c4cccc(Cl)c4)[C@@]3(C)CC[C@@H]12 [Compound 110]
The IC50 of the first is higher: greater than 100 nM for the first, 50 to 100 nM for the second. The second is the more potent here.

— patent publication US11945836B2, “Compositions and methods for treating CNS disorders” (Sage Therapeutics, Inc., priority 2014, dated 2024)
